Reference: PMC9596378, “Discovery and molecular basis of subtype-selective cyclophilin inhibitors” (Nature Chemical Biology, 2022)
Like-named read-outs stand apart in the source and are kept apart here. Values belong to the compound of their own block, whether it stands above or below them.

What was measured:
CypD K118E/R124A = molecular target: T1, CypD K118E/R124A (Homo sapiens, UniProt P30405, K118E/R124A); test: Chymotrypsin coupled prolyl-isomerase assay; assay type: biochemical
T1 construct: made in house; host or cells: E. coli BL21(DE3)
T1 sequence (P30405 45-207 K118E/R124A): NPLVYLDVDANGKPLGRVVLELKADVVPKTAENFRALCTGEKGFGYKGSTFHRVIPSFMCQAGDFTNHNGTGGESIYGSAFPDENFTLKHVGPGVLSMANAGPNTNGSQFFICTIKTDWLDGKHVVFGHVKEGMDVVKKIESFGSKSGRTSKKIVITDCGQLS
How it was run: (§1)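 Steps: cyclophilin plus compound 5 min at 2–3 °C; α-chymotrypsin added, 5 min more; Suc-AAPF-AMC substrate in LiCl/trifluoroethanol injected and fluorescence followed 330 s. Finals: 5 nM enzyme, 25 µM chymotrypsin, 5 µM substrate, 0.25% DMSO.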

CypD = CypD (Homo sapiens, UniProt P30405); test: Competition anisotropy binding assay with A26-Fl; parameters: PPIF (UniProtKB Entry P30405: residues 45–207); made in house; host or cells: E. coli BL21(DE3); conditions: FP competition with 0.5 nM A26-Fl, 24 h
Sequence of CypD (P30405 45-207): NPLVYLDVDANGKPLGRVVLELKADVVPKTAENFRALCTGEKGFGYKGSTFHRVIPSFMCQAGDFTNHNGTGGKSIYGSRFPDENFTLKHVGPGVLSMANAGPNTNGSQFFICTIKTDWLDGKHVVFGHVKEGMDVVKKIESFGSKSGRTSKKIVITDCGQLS
Procedure: (§2) Adapted from previous work[52], cyclophilin in assay buffer (25 mM HEPES pH 8.0, 100 mM NaCl, 0.01% Triton X-100) at a pre-determined concentration from Supplementary Table 6 was incubated with 0.5 nM A26-Fl for 10 min at room temperature in a flat-bottom black untreated 96-well plate (Corning). Competitor macrocycle was then added to each well and incubated for 24 h. Final assay volume was 100 µL with 0.25% DMSO. Fluorescence anisotropy was then measured using a Tecan Spark plate reader using 492 nm/523 nm excitation/emission settings.

CypE K212A = molecular target: T2, CypE K212A (Homo sapiens, UniProt Q9UNP9, K212A); test: Chymotrypsin coupled prolyl-isomerase assay; assay type: biochemical; conditions: mutant CypE K212A; read-out: Mutant Cyclophilin Prolyl Isomerase Inhibition IC50 Values, CypE K212A
T2 construct: Lane 4- GS-CypE K212A (131-301);; His6 tag with thrombin site (pET28a LIC); GS remnant stays on the N-terminus (N, cleaved yes); host or cells: E. coli BL21(DE3)
T2 sequence (Q9UNP9 131-301 K212A): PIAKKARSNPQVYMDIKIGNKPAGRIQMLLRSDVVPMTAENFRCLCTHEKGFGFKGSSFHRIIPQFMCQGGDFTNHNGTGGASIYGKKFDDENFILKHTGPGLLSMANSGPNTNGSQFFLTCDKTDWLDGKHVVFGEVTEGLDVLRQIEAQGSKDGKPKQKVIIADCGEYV
How it was run: as §1

CypE K217A = molecular target: T3, CypE K217A (Homo sapiens, UniProt Q9UNP9, K217A); test: Chymotrypsin coupled prolyl-isomerase assay; assay type: biochemical
T3 construct: Lane 5- GS-CypE K217A (131-301);; His6 tag with thrombin site (pET28a LIC); GS remnant stays on the N-terminus (N, cleaved yes); host or cells: E. coli BL21(DE3)
T3 sequence (Q9UNP9 131-301 K217A): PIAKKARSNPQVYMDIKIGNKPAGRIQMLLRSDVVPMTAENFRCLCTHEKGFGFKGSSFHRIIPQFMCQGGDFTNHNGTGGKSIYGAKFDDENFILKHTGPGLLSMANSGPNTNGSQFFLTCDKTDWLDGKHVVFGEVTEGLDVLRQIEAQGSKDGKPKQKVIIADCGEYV
How it was run: as §1

CypE K218A = molecular target: T4, CypE K218A (Homo sapiens, UniProt Q9UNP9, K218A); test: Chymotrypsin coupled prolyl-isomerase assay; assay type: biochemical
T4 construct: Lane 6- GS-CypE K218A (131-301);; His6 tag with thrombin site (pET28a LIC); GS remnant stays on the N-terminus (N, cleaved yes); host or cells: E. coli BL21(DE3)
T4 sequence (Q9UNP9 131-301 K218A): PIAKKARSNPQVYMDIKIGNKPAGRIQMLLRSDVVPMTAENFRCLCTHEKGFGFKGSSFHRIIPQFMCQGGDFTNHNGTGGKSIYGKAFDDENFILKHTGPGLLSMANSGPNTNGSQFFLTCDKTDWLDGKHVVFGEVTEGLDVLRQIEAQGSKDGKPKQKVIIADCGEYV
How it was run: as §1

Cyp40 = Cyp40 (Homo sapiens, UniProt Q08752); test: Competition anisotropy binding assay with A26-Fl; parameters: PPID (UniProtKB Entry Q08752: residues 1–183); made in house; host or cells: E. coli BL21(DE3); conditions: FP competition with 0.5 nM A26-Fl, 24 h
Sequence of Cyp40 (Q08752 1-183): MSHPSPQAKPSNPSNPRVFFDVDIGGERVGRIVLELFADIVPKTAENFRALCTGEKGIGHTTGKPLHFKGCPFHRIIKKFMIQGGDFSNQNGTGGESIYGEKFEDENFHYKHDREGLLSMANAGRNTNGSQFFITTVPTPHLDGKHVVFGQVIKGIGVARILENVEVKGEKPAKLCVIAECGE
Procedure: as §2

His6-CypD = molecular target: T5, His6-CypD (Homo sapiens, UniProt P30405); test: Surface plasmon resonance analysis of CypD ligands; assay type: binding; conditions: immobilized CypD; read-out: KD CypD (SPR)
T5 construct: PPIF (UniProtKB Entry P30405: residues 45–207); made in house; host or cells: E. coli BL21(DE3)
T5 sequence (P30405 45-207): as the sequence (P30405 45-207) above
Procedure: Adapting a previously used protocol, employing a Biacore T200 SPR, a Sensor S NTA (Biacore) chip was pre-loaded with 0.3 M NiCl2 and His6-CypD (50.24 nM, 1 µg mL^−1) within a solution of 10 mM HEPES, 150 mM NaCl, 0.005% Tween-20 and 1 mM TCEP (surface plasmon resonance (SPR) buffer). Protein was covalently immobilized subsequently with injection of 200 mM 1-ethyl-3-(3-dimethylaminopropyl)carbodiimide (EDC) 50 mM N-hydroxysuccinimide (NHS). EDC–NHS-activated chip was quenched by flowing 1 M ethanolamine over the chip. Compounds were dissolved in 1% DMSO/SPR buffer and flowed over the SPR chip. Binding analysis was conducted from raw sensorgram resonance unit (RU) values, where individual replicates represent kinetic fitted RU value during time of compound administration at each dose. RU values were normalized to DMSO treatment and the maximum RU value of 200 µM JOMBt. These values were evaluated using Prism v.9 by fitting one site-specific binding to calculate KD values.

SMILES: NCCCc1ccc(-c2ccc(C[C@@H]3NC(=O)[C@]4(Cc5ccccc5)CCCN(C4)C(=O)/C=C/C(=O)NCC[C@@H](C(=O)NCCOCCN)NC(=O)Cc4ccccc4CNC3=O)cc2)cc1 [Compound B32]
potency improvement on CypD K118E/R124A compared to wild-type CypD (CypD K118E/R124A): 100 fold | preference for CypD K118E/R124A over PPWD1 (CypD K118E/R124A; prolyl-isomerase IC50): at least 13 fold | selectivity for CypD K118E/R124A over CypA (CypD K118E/R124A; prolyl-isomerase IC50): > 100 fold | IC50 (CypD K118E/R124A; prolyl-isomerase inhibition): 60 nM

SMILES: NC(=O)C1CCNC(=O)C=CC(=O)N2CCCC(Cc3ccccc3)(C2)C(=O)NC(Cc2ccc(-c3ccc(C=O)c(B(O)O)c3)cc2)C(=O)NCc2ccccc2CC(=O)N1 (stereo not drawn) [Compound C3A]
Ki (CypD): 520 nM | IC50 (CypE K212A): 30 nM | less potent at inhibiting K217A prolyl-isomerase activity compared to wild-type CypE (CypE K217A): 150 fold | IC50 (CypE K217A; mutant CypE K217A, read-out: Mutant Cyclophilin Prolyl Isomerase Inhibition IC50 Values, CypE K217A): 19 nM | IC50 (CypE K218A; mutant CypE K218A, read-out: Mutant Cyclophilin Prolyl Isomerase Inhibition IC50 Values, CypE K218A): 2000 nM | IC50 (CypE K218A; prolyl-isomerase inhibition, read-out: IC50 CypE K218A): 19 ± 3 nM | Ki (Cyp40): > 10000 nM

Kd (His6-CypD): 19000 nM
SMILES: NCCOCCNC(=O)C1CCNC(=O)C=CC(=O)N2CCCC(C2)C(=O)NC(Cc2ccco2)C(=O)NCc2ccccc2CC(=O)N1 (stereo not drawn) [JOMBt]
